According to patent publication US8076486B2, “Heteroaryl-substituted arylaminopyridine derivatives as MEK inhibitors” (Merck Serono S.A., priority 2006, dated 2011):

Assays:
[1] = system: human melanoma A375 cells; assay: Tumor Cell Proliferation Assay (ATP Lite), A375; assay type: cell-based; conditions: A-375, 96 h, 4 days, ATPlite
Protocol: (§1) Assay 2: Tumor Cell Proliferation Assays (ATP Lite)
(§2) Murine colon C26 (1500 cells/well), human melanoma A375 (2000 cells/well), or human pancreatic MiaPaCa-2 cells (2000 cells/well) were plated in white, 96 well plates (Corning) in growth media (DMEM with 10% fetal bovine serum, 2 mM glutamine for C26 and MiaPaCa-2, and RPMI with 10% fetal bovine serum, 2 mM glutamine for A375) and cultured overnight at 37° C. in a humidified, 5% CO2 incubator. Inhibitors were serially diluted in 100% DMSO and subsequently added to the cells, in growth media, to reach a final concentration of 0.25% DMSO. The cells were incubated for 4 days in the presence of the test compounds and the proliferation was quantitated using the ATPlite cell proliferation kit (Packard).

[2] = system: human pancreatic MiaPaCa-2 cells; assay: Tumor Cell Proliferation Assay (ATP Lite), MiaPaCa-2; assay type: cell-based; conditions: MIA PaCa-2, 96 h, 4 days, ATPlite, read-out: MiaPaCa2 cell proliferation IC50
Protocol: as §1, §2

human MEK1 = human MEK1 (Homo sapiens, UniProt Q02750, S218E/S222E); assay: MEK-1 Enzyme Assay (LANCE-HTRF); assay type: biochemical; conditions: MEK-1 EE, ERK-2K52A substrate, 9 uM ATP, 1.5 hrs
Protocol: Assay 1: MEK-1 Enzyme Assay (LANCE-HTRF)
Inhibition of human MEK1 kinase activity was monitored with a homogenous, fluorescence-based assay. The assay uses time resolved fluorescence resonance energy transfer to probe for phosphorylation of ERK1 by MEK1. The detailed procedure is described in the following:
Constititutively active MEK-1 EE (150 ng/well) and ERK-2K52A (110 ng/well) were incubated in black, 384 well Optiplates (Perkin Elmer) for 1.5 hrs at room temperature, in the presence of increasing concentrations of inhibitors. The total reaction volume was 50 ul. The inhibitors were serial diluted in kinase buffer (9 uM ATP, 50 mM Tris-Hcl pH 8.0, 10 mM MgCl2, 1 mM DTT and 100 uM Na3VO4), to a final concentration of 1% DMSO. At the end of the incubation, the enzyme reaction was quenched by adding 50 ul of assay buffer containing 50 mM Tris-Hcl, 50 mM EDTA, 0.1% BSA and a mixture of 1.25 ug/mL europium labeled anti-phosphotyrosine mAb (Perkin Elmer) and 5 ug/mL of allophycocyanin labeled anti-GST antibody (CIS-US). Plates were agitated on a plate shaker for 30 minutes and the phosphorylation of the ERK-2K52A substrate was measured by homogeneous time resolved fluorescence (HTRF) at 340 nm excitation and […] emission filters on the VICTOR V fluorescence plate reader. Phosphorylation is expressed as a ratio of 665 nM signal×10,000/615 nM signal. To assess the inhibitory potential of the compounds, IC50-values were determined.

Murine colon C26 cells = assay: Tumor Cell Proliferation Assay (ATP Lite), C26; assay type: cell-based; conditions: Mus musculus, 96 h, 4 days, ATPlite
Protocol: as §1, §2

Chain of human MEK1 (Q02750 whole entry S218E/S222E): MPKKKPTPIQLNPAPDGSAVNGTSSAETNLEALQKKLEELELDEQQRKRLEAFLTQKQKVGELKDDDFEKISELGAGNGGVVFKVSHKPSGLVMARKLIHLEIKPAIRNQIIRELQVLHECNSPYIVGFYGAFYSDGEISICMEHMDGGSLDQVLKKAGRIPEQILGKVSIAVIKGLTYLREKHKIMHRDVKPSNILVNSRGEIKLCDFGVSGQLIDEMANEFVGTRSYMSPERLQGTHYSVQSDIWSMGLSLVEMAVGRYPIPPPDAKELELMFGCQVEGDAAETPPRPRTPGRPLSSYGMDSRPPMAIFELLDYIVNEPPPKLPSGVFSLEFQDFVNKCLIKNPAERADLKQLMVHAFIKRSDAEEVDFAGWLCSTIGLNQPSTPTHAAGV

IC50 [1] [nM]	IC50 [2] [nM]	IC50 (human MEK1) [nM]	IC50 (Murine colon C26 cells) [nM]	Structure (SMILES)
≤ 3000	3000 to 25000	≤ 3000	3000 to 25000	O=c1[nH]nc(-c2ccncc2Nc2ccc(I)cc2F)o1 [Example 1, 5-[3-(2-Fluoro-4-iodo-phenylamino)-pyridin-4-yl]-3H-[1,3,4]oxadiazol-2-one]
≤ 3000	≤ 3000	≤ 3000	3000 to 25000	Fc1cc(I)ccc1Nc1cnccc1-c1n[nH]c(=S)o1 [Example 3, 5-[3-(2-Fluoro-4-iodo-phenylamino)-pyridin-4-yl]-3H-[1,3,4]oxadiazole-2-thione]
≤ 3000	≤ 3000	≤ 3000	≤ 3000	O=c1[nH]nc(-c2ccncc2Nc2ccc(I)cc2F)[nH]1 [Example 4, 5-[3-(2-Fluoro-4-iodo-phenylamino)-pyridin-4-yl]-2,4-dihydro-[1,2,4]triazol-3-one]
≤ 3000	≤ 3000	≤ 3000	≤ 3000	CSc1nnc(-c2ccncc2Nc2ccc(I)cc2F)o1 [Example 5, (2-Fluoro-4-iodo-phenyl)-[4-(5-methylsulfanyl-[1,3,4]oxadiazol-2-yl)-pyridin-3-yl]-amine]
≤ 3000	≤ 3000	≤ 3000	≤ 3000	Fc1cc(I)ccc1Nc1cnccc1-c1nnc(N2CCOCC2)o1 [Example 6, (2-Fluoro-4-iodo-phenyl)-[4-(5-morpholin-4-yl-[1,3,4]oxadiazol-2-yl)-pyridin-3-yl]-amine]
≤ 3000	≤ 3000	≤ 3000	≤ 3000	CNc1nnc(-c2ccncc2Nc2ccc(I)cc2F)s1 [Example 7, (2-Fluoro-4-iodo-phenyl)-[4-(5-methylamino-[1,3,4]thiadiazol-2-yl)-pyridin-3-yl]-amine]
≤ 3000	≤ 3000	≤ 3000	≤ 3000	Cn1c(-c2ccncc2Nc2ccc(I)cc2F)n[nH]c1=S [Example 8, 5-[3-(2-Fluoro-4-iodo-phenylamino)-pyridin-4-yl]-4-methyl-2,4-dihydro-[1,2,4]triazole-3-thione]
≤ 3000	≤ 3000	3000 to 25000	≤ 3000	Fc1cc(I)ccc1Nc1cnccc1C1NNC(=S)N1CCN1CCOCC1 (stereo not drawn) [Example 9, 5-[3-(2-Fluoro-4-iodo-phenylamino)-pyridin-4-yl]-4-(2-morpholin-4-yl-ethyl)-[1,2,4]triazolidine-3-thione]
≤ 3000	≤ 3000	≤ 3000	≤ 3000	CC1(C)OCC(CNc2nnc(-c3ccncc3Nc3ccc(I)cc3F)o2)O1 (stereo not drawn) [Example 10, (4-{5-[(2,2-Dimethyl-[1,3]dioxolan-4-ylmethyl)-amino]-[1,3,4]oxadiazol-2-yl}-pyridin-3-yl)-(2-fluoro-4-iodo-phenyl)-amine]
≤ 3000	≤ 3000	≤ 3000	≤ 3000	OCC(O)CNc1nnc(-c2ccncc2Nc2ccc(I)cc2F)o1 (stereo not drawn) [Example 11, 3-{5-[3-(2-Fluoro-4-iodo-phenylamino)-pyridin-4-yl]-[1,3,4]oxadiazol-2-ylamino}-propane-1,2-diol]
≤ 3000	≤ 3000	≤ 3000	≤ 3000	Fc1cc(I)ccc1Nc1cnccc1-c1nnc(NCCN2CCOCC2)s1 [Example 12, (2-Fluoro-4-iodo-phenyl)-{4-[5-(2-morpholin-4-yl-ethylamino)-[1,3,4]thiadiazol-2-yl]-pyridin-3-yl}-amine]
≤ 3000	≤ 3000	≤ 3000	≤ 3000	Cc1nnc(-c2ccncc2Nc2ccc(I)cc2F)o1 [Example 13, (2-Fluoro-4-iodo-phenyl)-[4-(5-methyl-[1,3,4]oxadiazol-2-yl)-pyridin-3-yl]-amine]
≤ 3000	≤ 3000	≤ 3000	≤ 3000	Nc1nnc(-c2ccncc2Nc2ccc(Br)cc2Br)o1 [Example 14, [4-(5-Amino-[1,3,4]oxadiazol-2-yl)-pyridin-3-yl]-(2,4-dibromo-phenyl)-amine]
≤ 3000	≤ 3000	≤ 3000	≤ 3000	CCOC(=O)C(=O)Nc1nnc(-c2ccncc2Nc2ccc(I)cc2F)o1 [Example 15, N-{5-[3-(2-Fluoro-4-iodo-phenylamino)-pyridin-4-yl]-[1,3,4]oxadiazol-2-yl}-oxalamic acid ethyl ester]
≤ 3000	≤ 3000	≤ 3000	≤ 3000	CNc1nnc(-c2ccncc2Nc2ccc(I)cc2F)o1 [Example 16, (2-Fluoro-4-iodo-phenyl)-[4-(5-methylamino-[1,3,4]oxadiazol-2-yl)-pyridin-3-yl]-amine]
3000 to 25000	3000 to 25000	≤ 3000	> 25000	CCOC(=O)CNC(=O)Nc1nnc(-c2ccncc2Nc2ccc(I)cc2F)o1 [Example 17, (3-{5-[3-(2-Fluoro-4-iodo-phenylamino)-pyridin-4-yl]-[1,3,4]oxadiazol-2-yl}-ureido)-acetic acid ethylester]
≤ 3000	≤ 3000	≤ 3000	≤ 3000	Fc1cc(I)ccc1Nc1cnccc1-c1nnc(NCCN2CCCCC2)o1 [Example 18, (2-Fluoro-4-iodo-phenyl)-{4-[5-(2-piperidin-1-yl-ethylamino)-[1,3,4]oxadiazol-2-yl]-pyridin-3-yl}-amine]
≤ 3000	≤ 3000	≤ 3000	≤ 3000	Fc1cc(I)ccc1Nc1cnccc1-c1nnc(NCCCN2CCOCC2)o1 [Example 19, (2-Fluoro-4-iodo-phenyl)-{4-[5-(3-morpholin-4-yl-propylamino)-[1,3,4]oxadiazol-2-yl]-pyridin-3-yl}-amine]
≤ 3000	≤ 3000	≤ 3000	≤ 3000	Fc1cc(I)ccc1Nc1cnccc1-c1nnc(NCCN2CCOCC2)o1 [Example 20, (2-Fluoro-4-iodo-phenyl)-{4-[5-(2-morpholin-4-yl-ethylamino)-[1,3,4]oxadiazol-2-yl]-pyridin-3-yl}-amine]
≤ 3000	≤ 3000	≤ 3000	≤ 3000	CC(=O)Nc1nnc(-c2ccncc2Nc2ccc(I)cc2F)o1 [Example 21, N-{5-[3-(2-Fluoro-4-iodo-phenylamino)-pyridin-4-yl]-[1,3,4]oxadiazol-2-yl}-acetamide]
≤ 3000	≤ 3000	≤ 3000	≤ 3000	CN(C)CCNc1nnc(-c2ccncc2Nc2ccc(I)cc2F)o1 [Example 22, N-{5-[3-(2-Fluoro-4-iodo-phenylamino)-pyridin-4-yl]-[1,3,4]oxadiazol-2-yl}-N′,N′-dimethyl-ethane-1,2-diamine]
≤ 3000	≤ 3000	≤ 3000	≤ 3000	Fc1cc(I)ccc1Nc1cnccc1-c1nnc(NCCN2CCCC2)o1 [Example 23, (2-Fluoro-4-iodo-phenyl)-{4-[5-(2-pyrrolidin-1-yl-ethylamino)-[1,3,4]oxadiazol-2-yl]-pyridin-3-yl}-amine]
≤ 3000	≤ 3000	≤ 3000	≤ 3000	Nc1nnc(-c2ccncc2Nc2ccc(I)cc2Cl)o1 [Example 24, [4-(5-Amino-[1,3,4]oxadiazol-2-yl)-pyridin-3-yl]-(2-chloro-4-iodo-phenyl)-amine]
		≤ 3000		C#Cc1cc(-c2nnc(N)o2)c(Nc2ccc(I)cc2F)cn1 [Example 28, [4-(5-Amino-[1,3,4]oxadiazol-2-yl)-6-ethynyl-pyridin-3-yl]-(2-fluoro-4-iodo-phenyl)-amine]
		≤ 3000		CCOc1nnc(-c2ccncc2Nc2ccc(I)cc2F)[nH]1 [Example 30, [4-(5-Ethoxy-4H-[1,2,4]triazol-3-yl)-pyridin-3-yl]-(2-fluoro-4-iodo-phenyl)-amine]
		≤ 3000		CCOC(=O)c1noc(-c2ccncc2Nc2ccc(I)cc2F)n1 [Example 36, 5-[3-(2-Fluoro-4-iodo-phenylamino)-pyridin-4-yl]-[1,2,4]oxadiazole-3-carboxylic acid ethyl ester]
		≤ 3000		Cc1noc(C)c1-c1ccncc1Nc1ccc(I)cc1F [Example 66]
